Test results published in patent US11643413B2, “9-(2-oxacycloalkyl)-9H-purine-2,6-diamine derivatives and their use for the treatment of skin disorders” (UNIVERZITA PALACKEHO V OLOMOUCI, priority 2017, dated 2023).

Assays:
BJ skin fibroblasts = experiment: Intracellular ROS production, DCFH-DA probe; assay type: cell-based, human; details: 24 h incubation at 100, 10, 1 and 0.1 μM
Experimental: ROS production in living cells was determined by using the fluorescent probe DCFH-DA. In brief, compound 114 at 100, 10, 1 and 0.1 μM concentrations was incubated for 24 h with BJ skin fibroblasts. Thereafter, cells were washed with phosphate buffer and DCFH-DA was added. The fluorescence was read every 1 min over 20 min by using microplate reader Infinite M200 (TECAN, Switzerland). ROS production was calculated as the increase in fluorescence over 20 min.

[1] = tested on: human epidermal model EpiDerm™; experiment: In vitro skin irritation test, EpiDerm; assay type: cell-based
Experimental: Test substance was assayed for the in vitro skin irritation in human epidermal model EpiDerm™. The test was performed according to the Method B.46. In vitro skin irritation: Reconstructed human epidermis model test and Protocol for: In Vitro EpiDerm™ Skin Irritation Test For use with MatTek Corporation's Reconstructed Human Epidermal Model EPI-200-SIT (see par. 1.4, (1), (3)). Two types of extract were prepared by means of polar (water) as well as non-polar extractant (olive oil) according to directions given in ČSN EN ISO 10 993-12 (2012). After pre-incubation of tissues, 30 μl of an extract was placed directly atop to the tissue so it covered all tissue surfaces. Length of exposition was 60 minutes. Three tissues were used for the extract and for each control. The procedure was performed separately for each extract. After removal of extracts of the test substance from tissues, tissues were post incubated for 42 hours due to leave of damage reparation, followed by three hours incubation with MTT and two hours extraction period with shaking. Optical density (OD570) of isopropyl alcohol extracts was measured on a spectrophotometer. Relative cell viability was calculated for each tissue as % of the mean viability of the negative control tissues. Under the above-described experimental design, average viability of tissues treated by test substance water extract was 99.0% and by test substance olive oil extract 103.0%, i.e. viability was >50% in both cases. The effect of the test substance 114 was negative in EpiDerm™ model (tissues were not damaged). According to the classification criteria given in chapter 4.5, the test substance is considered to have no category in regard to skin irritation.

Wistar rats = experiment: Acute dermal toxicity; assay type: in vivo
Experimental: The test substance 114 was tested for acute dermal toxicity using Wistar rats. Testing was performed according to ČSN EN ISO 10993-11: Biologické hodnoceni zdravotnických prostředků—část 11: Zkoušky na systémovou toxicitu and according to OECD Test Guideline No. 402 Acute Dermal Toxicity Adopted 24 Feb. 1987. The study was performed as limit test: two groups of animals—5 males and 5 females at the dose of 1000 mg/kg of body weight. The pre-test was performed with 1 male and 1 female from each group. After the pilot experiment, the other animals of the group were dosed. The test substance in delivered form was applied on the shaved skin of the test animals for 24 hours. The test animals were observed 14 days after exposure to the test substance, afterwards they were sacrificed, and the necropsy for macroscopic examination of the organs was performed. […] The test substance toxicity was evaluated on the basis of mortality, body weight changes, and clinical signs of toxicity during the observation period and necropsy findings at the end of the study. According to the results of study, the value of Maximum Tolerated Dose (dermal) of the test substance for rats of both sexes is higher than 1000 mg/kg of body weight.

[2] = Radical scavenging activity determined by ORAC; details: relative to trolox; Mean ± SD (n = 3)
Experimental: The ability of compounds to scavenge free radicals in vitro was determined by Oxygen Radical Absorbance Capacity (ORAC) method. In brief, fluorescein (100 μl, […]) and 25 μl of compound solution were added into each working well in a 96-well microplate preincubated at 37° C. Thereafter, 25 μL of 250 mM AAPH was quickly added, microplate was shaken for 5 s and the fluorescence (Ex. 485 nm, Em. 510 nm) was read every 3 min over 90 min by using microplate reader Infinite 200 (TECAN, Switzerland). The net area under the curve was used to express antioxidant activity relative to trolox which was used as a standard.

[3] = tested on: Rabbits (New Zealand Albino breed); details: rabbit, in vivo
Experimental: The test substance 114 was tested in Animal skin irritation test. Rabbits (New Zealand Albino breed) were used for the test. The test was performed according to ČSN EN ISO 10993 (Březen 2014): Biologické hodnoceni zdravotnických prostředků—část 10: Zkoušky dráždivosti a senzibilizace kůže, článek 6.3 Zkouška dráždivosti na zviřatech (Biological evaluation of medical devices—Part 10: Tests for irritation and delayed-type hypersensitivity). A dose 0.5 g of the test substance was applied to the skin of the back on each side of each rabbit. […] At first the one rabbit (test animal. No. 16) was used. Two other rabbits (rabbit No. 17 and No. 18) were used in confirmatory test. At the end of the contact time (4 hours) the dressings were removed and animals were examined for signs of erythema and oedema, and the response was evaluated at 1, 24, 48 and 72 hours afterpatches removal.

[4] = tested on: Escherichia coli WP2 uvrA strain; experiment: Ames test (Bacterial Reverse Mutation Test), E. coli; assay type: cell-based; details: 10-1000 μg per plate; without as well as with metabolic activation
Experimental: The test substance was (114) assayed for the mutagenicity by the Bacterial Reverse Mutation Test. The performed test was based on EU method B.13/14 Mutagenicity—Reverse mutation test using bacteria, which is analogous to the OECD Test Guideline No. 471. Four indicator Salmonella typhimurium strains TA 98, TA 100, TA 1535, TA 1537 and one indicator Escherichia coli WP2 uvrA strain were used. The test substance was dissolved in dimethylsulfoxide (DMSO) and assayed in doses of 10-1000 μg per plate, which were applied to plates in volume of 0.1 mL. Experiments were performed without as well as with metabolic activation with a supernatant of rat liver and a mixture of cofactors. The working procedure described is in accordance with the documents Method B.13/14, Mutagenicity: Reverse Mutation Test Using Bacteria, Council Regulation (EC) No. 440/2008. Published in O.J. L 142, 2008 and OECD Test Guideline 471, Bacterial Reverse Mutation Test. Adopted Jul. 21, 1997. In the arrangement given above, the test substance was non-mutagenic for all the used tester strains without as well as with metabolic activation.

[5] = 60 minutes exposition, 42 hours post incubation, MTT, % of negative control

CN(C)c1nc(NCc2ccco2)c2ncn(C3CCCCO3)c2n1 (centres unmarked) [Compound 114, 2-(Dimethylamino)-6-furfurylamino-9-(tetrahydro-2H-pyran-2-yl)-9H-purine]
concentration at which intracellular ROS production is significantly decreased (BJ skin fibroblasts): ≥ 10 µM
skin irritation classification [1]: no category
average viability of tissues, olive oil extract [1, 5]: 103.0%
average viability of tissues, water extract [1, 5]: 99.0%
effect in EpiDerm model ([1]; water and olive oil extracts): negative
mortality (Wistar rats; 1000 mg/kg of body weight dermal, 14 days observation): did not cause death of animals
Maximum Tolerated Dose (dermal) (Wistar rats; 24 hours on shaved skin, rats of both sexes): higher than 1000 mg/kg of body weight
ORAC (compound/trolox) [2]: 0.211 ± 0.018
Primary Irritation Index ([3]; New Zealand Albino, 4 h): 0
changes in animal weights [3]: No changes in animal weights
clinical signs of systemic intoxication [3]: No clinical signs of systemic intoxication
erythema and oedema [3]: No erythema and oedema
skin irritation [3]: No skin irritation
mutagenicity [4]: non-mutagenic
